Measured values: US20240002789A1, “SKIN SPHEROIDS AND PROCESS OF PREPARATION AND USE THEREOF” (The Governing Council of The University of Toronto, priority 2020, published 2024)

How the values were obtained:
Type in all cases: cell-based, human
[1] = test system: dermal fibroblasts spheroids (DFSs); test: On-chip screening of active ingredients on DFSs: collagen type I and fibronectin secretion (ELISA of culture supernatant)
Description: The microfluidic device was first, purged for 20 min with fluorinated oil with 0.5 wt % 008-fluorosurfactant (RAN Biotechnologies, USA) at a flow rate of 0.1 mL/hr. Subsequently, the supplying channel and the microwells were filled with the hDFs-in-EKGel I suspension with a cell density of 4.9×10^5 cells/μL. After that, the cell suspension in the supplying channel was replaced with fluorinated oil with 0.5 wt % surfactants. The inlet and outlet of the microfluidics quadruplet device were then sealed with PCR sealing tape and incubated at 37° C. for 2 hours, allowing EKGel to gel. Subsequently, the complete culture medium was continuously flowed through the supplying channel at the flow rate of 0.025 mL/hr. On the second day (Day 1), hDFs-laden EKGel droplets transformed into dermal fibroblasts spheroids (DFSs). Due to the contraction of DFSs, free space was present in each microwell, which allowed the incorporation of a second layer. To introduce another layer of keratinocytes, the culture medium was replaced by fluorinated oil with 0.5 wt % surfactants.
(§1) To study the effect of vitamin C or retinol on DFSs or KDFSs, on Day 2 the complete culture medium was replaced with 1% FBS DMEM culture medium with 1% (v/v) penicillin/streptomycin containing 0, 20, or 100 μg/mL vitamin C. Retinol at concentrations of 0, 30, 45, 60 μM was dissolved in 1% FBS DMEM culture medium with 1% (v/v) penicillin/streptomycin and 0.1% dimethyl sulfoxide (DMSO). The culture supernatant was collected from the outlet every 24-hours for analysis.
The amount of procollagen type I and fibronectin synthesized by hDFs and released in the supernatant were quantified using two ELISA kits, namely, Procollagen Type I C-Peptide (PIP) ELISA kit (MK101, Takara Bio Inc.) and Fibronectin ELISA kit (MK115, Takara Bio Inc.). Procollagen type I was used as the indicator for the collagen type I synthesized from hDFs. To determine the amount of procollagen type I synthesized by the cells, 20 μL collected culture supernatant and 100 μL of the anti-PIP antibody-peroxidase (POD) were added into a 96-well microplate coated with anti-PIP antibody and incubated at 37° C. for 3 hours. To determine the amount of fibronectin synthesized by the cells, 100 μL of the supernatant was first, added to the antibody-coated 96-well microplate for 1 hour at 37° C., thus allowing the fibronectin in the supernatant to bond to the antibody-coated on the microplate.
The supernatant was then discarded, and the microplates were washed with 1×PBS (MK021, Takara Bio Inc.) three times. Subsequently, the captured fibronectin was tagged by adding 100 μL of anti-human fibronectin antibody-POD conjugate into the microplate and incubating it for another 1 hour at 37° C. Upon completion of the antibody-POD conjugate incubation for both assays, the liquid content in the microwells was discarded and the microwells were washed four times with 1×PBS. 100 μL substrate solution (solution of 3,3′,5,5′-tetramethylbenzidine) was then added to the wells and incubated at room temperature for 15 min. Subsequently, 100 μL stop solution (MK021, Takara Bio Inc.) was added to each well. After stopping the reaction between POD and substrate, the absorbance of the contents of each microwell at 450 nm was measured by the CLARIOstar plate reader.

[2] = test system: dermal fibroblasts spheroids (DFSs); test: Immunofluorescence staining of collagen type I and fibronectin deposited in DFSs on the chip; settings: 72-hour treatment, 100 μg/mL vs 0 μg/mL vitamin C
Description: as §1
The immunofluorescence staining on DFSs/KDFSs formed in the microfluidic device was conducted by flowing a series of solutions at a flow rate of 0.15 mL/hr into the supplying microchannel in the following order. First, 1× Hanks' Balanced Salt Solution (HBSS) was flowed into the device for 20 min to remove the cell culture medium. Subsequently, a 5% formalin solution in HBSS was flowed to fix the DFSs/DKFSs. Subsequently, the formalin was washed away by purging 0.1 M glycine in 1×HBSS for 60 min. To permeate the DFSs/KDFSs, 0.5% triton-X in 1×HBSS was flowed into the device for 30 min. Subsequently, an immunofluorescence (IF) solution (consisting of 0.05 wt % NaN3, 0.1 wt % bovine serum albumin, 0.2 vol. % triton-X-100 and 0.05 vol. % Tween-20 in HBSS) was flowed to the microfluidics for 45 min. Primary blocking solution (10 wt % goat serum in IF washing solution) was then flowed for 60 min. […]

[3] = test system: keratinocyte-dermal fibroblasts spheroids (KDFSs); test: Vitamin C screening on KDFSs: collagen type I and fibronectin secretion; settings: 24-hour treatment; KDFSs from two lineages of dermal fibroblasts
Description: Keratinocytes were suspended in EKGel II precursor solution at a cell/gel mass ratio of 75:25. The keratinocytes-in-EKGel II suspension was then purged into the channel and filled the microwells. Consequently, the cell suspension in the supplying channel was washed away by fluorinated oil mixed with 0.5 wt % surfactants. The device was sealed and incubated at 37° C. for 1 hour. Finally, the complete culture medium was flowed to the microfluidic device at the flow rate of 0.025 mL/hr. On Day 2, keratinocytes aggregated and integrated with the hDF core to form layered skin spheroids, KDFSs.
To study the effect of vitamin C or retinol on DFSs or KDFSs, on Day 2 the complete culture medium was replaced with 1% FBS DMEM culture medium with 1% (v/v) penicillin/streptomycin containing 0, 20, or 100 μg/mL vitamin C. […]
The amount of procollagen type I and fibronectin synthesized by hDFs and released in the supernatant were quantified using two ELISA kits, namely, Procollagen Type I C-Peptide (PIP) ELISA kit (MK101, Takara Bio Inc.) and Fibronectin ELISA kit (MK115, Takara Bio Inc.). […]
The supernatant was then discarded, and the microplates were washed with 1×PBS (MK021, Takara Bio Inc.) three times. […] After stopping the reaction between POD and substrate, the absorbance of the contents of each microwell at 450 nm was measured by the CLARIOstar plate reader.

[4] = 100 μg/mL vitamin C for 24-hours

| SMILES | effect on fibronectin production in DFSs ([1]; retinol 30 μM, preliminary study) | effect on fibronectin production in DFSs ([1]; retinol 45 μM, preliminary study) | effect of retinol on DFSs (fibronectin production) ([1]; retinol 60 μM, longer incubation time (day 5), preliminary study) | effect on collagen expression in DFSs ([1]; retinol 30, 45, 60 μM, preliminary study) | deposition of collagen type I in DFSs [2] | deposition of fibronectin in DFSs [2] | concentration required to stimulate the production of collagen and fibronectin in KDFSs compared to DFSs [3] | collagen type I secretion from DFSs [1, 4] | fibronectin secretion from DFSs [1, 4] |
| --- | --- | --- | --- | --- | --- | --- | --- | --- | --- |
| CC1=C(/C=C/C(C)=C/C=C/C(C)=C/CO)C(C)(C)CCC1 [retinol] | positive and significant effect | positive and significant effect | negative effect | significant positive effect of retinol was not yet observed |  |  |  |  |  |
| O=C1O[C@H]([C@@H](O)CO)C(O)=C1O [vitamin C] |  |  |  |  | increased | increased | a higher concentration of vitamin C was required | increased level | increased level |
